One molecule from BindingDB's records for doi:10.1128/aac.00737-07 (Duke University Medical Center, 2008) can be followed below.

Molecules are shown by their SMILES.

Experiment [1] can be described thus: Inhibition of HIV1 (isolate YU2) envelope glycoprotein 120-mediated membrane fusion between virus-transfected african green monkey COS cells and human TZM-bl cells by luciferase-based cell-cell fusion assay in absence of IC9564.
Experiment [2] in a line: Inhibition of HIV1 (isolate YU2) envelope glycoprotein 120-mediated membrane fusion between virus-transfected african green monkey COS cells and human TZM-bl cells by luciferase-based cell-cell fusion assay in presence of IC9564.

Turning to `COc1ccnc2[nH]cc(C(=O)C(=O)N3CCN(C(=O)c4ccccc4)C[C@H]3C)c12` [(R)-1-(4-benzoyl-2-methylpiperazin-1-yl)-2-(4-methoxy-1H-pyrrolo[2,3-b]pyridin-3-yl)ethane-1,2-dione], the figures for the IC50 in experiment [1] and in experiment [2] were 137 nM and 34.4 nM, respectively.
